Results: paper PMC5078989, “Targeted inhibition of the COP9 signalosome for treatment of cancer” (Nature Communications, 2016)

How the values were obtained:
[1] = test system: SU-DHL-1 xenografts; assay: SU-DHL-1 xenograft experiment in SCID-bg mice; format: in vivo; details: 14 days; for T/C value (tumour volume of treated versus control): last day of treatment
Description: For the in vivo study, subcutaneous SU-DHL-1 xenografts were grown in SCID-bg mice and CSN5i-3 was administered orally at doses of 50 mg kg^−1 BID and 100 mg kg^−1 QD over a period of 14 days. […] Tumours were excised at the end of the study and the effect of compound treatment assessed on the pharmacodynamics markers, neddylated Cul1 and Skp2. […] All animal experiments were approved by the Kantonales Veterinäramt Basel-Stadt and were conducted in accordance with the Eidgenössisches Tierschutzgesetz and the Eidgenössische Tierschutzverordnung. SU-DHL-1 cells (1 × 10^7; DSMZ) were implanted subcutaneously into SCID-bg female 7–9-week-old mice (Taconic) and developing tumours were propagated once before subcutaneous transplantation for efficacy studies. Treatment was initiated when tumours reached 150–200 mm^3 volume. […] Randomization was conducted by using an internal computer software (Indigo). CSN5i-3 was formulated in 100 mM citrate buffer pH 3, PEG300, Kolliphor HS15, 1 N HCl (56:30:10:4%w/w). Tumour response is reported as percentage change in tumour volume at the last day of treatment relative to start of treatment. […] At day 10 of treatment blood, samples were taken and concentrations of CSN5i-3 were determined at indicated time points post dose using ultra-high-pressure liquid chromatography/tandem MS. At the end of treatment, tumours were excised and snap frozen in liquid nitrogen. Frozen tumours were pulverized using CryoPrep (Covaris Inc.) and protein lysates were prepared from tumour powder for immunoblot analysis.

[2] = test system: HCT116 cells; assay: Immunoblotting of cullins, CRL components and substrates in HCT116 cells; format: cell-based, human
Description: Figure 2 CSN5 inhibition results in the inactivation of a subset of CRLs and the stabilization of their substrates. Effect on CRL components and substrates after treatment of HCT116 cells with either 1 μM MLN4924 or 1 μM CSN5i-3. (a) Immunoblottings for Cul1 and its CRL components Rbx and Skp1; (b) for cullins Cul2, Cul3 and Cul4A; (c) for F-box protein Skp2 and the SCF^Skp2 substrates p21 and p27; (d) for F-box proteins Fbxo22 and Fbxo30; (e) for F-box protein βTrCP and the SCF^βTrCP substrates Wee1 and pIκBα; (f) for the adaptor KEAP1 and the Cul3^KEAP1 substrate Nrf2; (g) for F-box proteins Fbxw7 and Fbxo3.
Cells were maintained in a humidified incubator at 37 °C and 5% CO2. HCT116 cells (ATCC #CCL-247) were grown in McCoy's 5A medium (GIBCO #16600–082) supplemented with 10% fetal bovine serum (FBS), TE-1 (RIKEN BioResource Center, #RCB1894), NCI-H2030 (ATCC #CRL-591), SU-DHL-1 (DMSZ #ACC 356), NOMO-1 (HSRRB #IFO50474) and NCIH196 cells (ATCC, #CRL-5823) in RPMI-1640 medium (GIBCO#61870–010) supplemented with 10% FBS, 10 mM HEPES, 1 mM sodium pyruvate and THP-1 cells (ATCC #TIB-202) with additional 0.05 mM 2-mercaptoethanol. DMS273 cells (ECACC #950628) were cultured in Waymouth's MB 752/1 medium (GIBCO#11220–035) supplemented with 10% FBS. All cells were negatively tested for mycoplasma contamination either by the vendor or in house. For treatment with compounds, sub-confluent cells were either treated with inhibitors at the indicated concentrations or mock treated with an equivalent amount of DMSO (final content 0.1%). If not stated otherwise, cells were harvested after incubation for 16 h and subjected to SDS–PAGE and western blotting. The RNA interference experiment was performed with CSN5 stealth siRNA (#HSS116986) and stealth negative control siRNA (#12935–400) (Invitrogen), which were transfected at 10 nM into HCT116 cells using HiperFect (Qiagen) according to the manufacturer's protocols. Seventy-two hours after transfection, cells were harvested and subjected to SDS–PAGE and western blotting (see Supplementary Fig. 7 for all western blottings performed).
For further analysis, cell lysates were prepared by direct lysis with 2 × Sample buffer (65.8 mM Tris-HCl, pH 6.8, 2.1% SDS, 26.3% glycerol, 0.01% bromophenol blue and 20 mM DTT). Protein lysates from tumour powder were prepared in RIPA buffer (50 mM Tris-HCl pH 8.0, 150 mM NaCl, 1% Triton X-100, 2 mM EDTA, 0.5% sodium deoxycholate and 0.1% SDS) supplemented with 10 mM N-ethylmaleimide, protease inhibitor and phosphatase inhibitor cocktails (Roche Diagnostics). Cells from longer compound incubations were also lysed in RIPA buffer, which allows the protein concentration to be determined by BCA Protein Assay Kit (Pierce). Proteins were separated by SDS–PAGE using 4–20% Tris-Glycine Gels (Invitrogen) and subsequently transferred to polyvinylidene difluoride membranes using a Trans-Blot Turbo System (BioRad). […] Horseradish peroxidase-conjugated secondary antibodies (1:3,000) were purchased from Promega AG and bound antibody was detected by enhanced chemiluminescence (Pierce).

[3] = 50 mg kg^−1 BID and 100 mg kg^−1 QD oral

CC(C)n1nc(C(F)F)cc1C(=O)Nc1ccc([C@H]2[C@@H](O)CCCc3cncn32)c(-c2ccccc2)c1 [CSN5i-3, 3-(Difluoromethyl)-N-(6-((5S,6S)-6-hydroxy-6,7,8,9-tetrahydro-5H-imidazo[1,5-a]azepin-5-yl)-[1,1′-biphenyl]-3-yl)-1-isopropyl-1H-pyrazole-5-carboxamide]
tolerability based on body weight [1, 3]: well tolerated
tumour growth outcome [1, 3]: Tumour stasis
T/C value (tumour volume of treated versus control) ([1]; 50 mg kg^−1 BID oral): 22%
T/C value (tumour volume of treated versus control) ([1]; 100 mg kg^−1 QD oral): 25%
degradation of Wee1, pIκB and Nrf2 ([2]; HCT116, 1 μM): did not affect their degradation
levels of SRMs Skp2, Fbxo22 and Fbxo30 ([2]; HCT116, 1 μM): degradation
levels of βTrCP, KEAP1, Fbxo3 and Fbxw7 ([2]; HCT116, 1 μM): remained stable
cullin-1 (Cul1) deneddylation in HCT116 cells ([2]; qualitative western blot analysis): accumulation of neddylated Cul1
